Source: ChEMBL document CHEMBL6127014, “Repurposing antiplasmodial leads for cancer: Exploring the antiproliferative effects of N-cinnamoyl-aminoacridines” (Bioorg Med Chem Lett, 2024)
Active and inactive are the calls of the source. No cut-off for these calls is given here.

Key:
MKN-28 [1] = assay: Cytotoxicity against human MKN-28 cells assessed as reduction in cell viability at 12.5 to 25 uM incubated for 24 hrs by MTT assay; format: functional, cell-based; conditions: dose 12.5-25 µM
[2] = Cytotoxicity against HDF cells assessed as reduction in cell viability at 12.5 to 25 uM incubated for 24 hrs by MTT assay; format: toxicity, cell-based; conditions: human, dose 12.5-25 µM
MKN-28 [3] = assay: Cytotoxicity against human MKN-28 cells assessed as reduction in cell viability at 12.5 to 50 uM incubated for 24 hrs by MTT assay; format: functional, cell-based; conditions: dose 12.5-50 µM
[4] = Cytotoxicity against HDF cells assessed as reduction in cell viability at 12.5 to 50 uM incubated for 24 hrs by MTT assay; format: toxicity, cell-based; conditions: human, dose 12.5-50 µM
MKN-28 [5] = assay: Antiproliferative activity against human MKN-28 cells assessed as inhibition of cell growth incubated for 24 hrs by MTT assay; format: functional, cell-based; conditions: MKN-28, 24 h
[6] = Cytotoxicity against HDF cells assessed as inhibition of cell growth incubated for 24 hrs by MTT assay; format: toxicity, cell-based; conditions: human
[7] = Selectivity index, ratio of IC50 for cytotoxicity against HDF cells to IC50 for antiproliferative activity against human MKN-28 cells; format: toxicity, cell-based; conditions: HDF cells versus MKN-28 cells, read-out: Ratio IC50
Huh-7 = assay: Antiproliferative activity against human Huh-7 cells assessed as inhibition of cell growth incubated for 24 hrs by Alamar blue assay; format: functional, cell-based; conditions: Huh-7, 24 h
[8] = Selectivity index, ratio of IC50 for cytotoxicity against HDF cells to IC50 for antiproliferative activity against human Huh-7 cells; format: toxicity, cell-based; conditions: HDF cells versus Huh-7 cells, read-out: Ratio IC50
HepG2 = assay: Antiproliferative activity against human HepG2 cells assessed as inhibition of cell growth incubated for 24 hrs by Alamar blue assay; format: functional, cell-based; conditions: HepG2, 24 h
[9] = Selectivity index, ratio of IC50 for cytotoxicity against HDF cells to IC50 for antiproliferative activity against human HepG2 cells; format: toxicity, cell-based; conditions: HDF cells versus HepG2 cells, read-out: Ratio IC50
MKN-28 [10] = assay: Antiproliferative activity against human MKN-28 cells assessed as inhibition of cell growth incubated for 2 days by SRB assay; format: functional, cell-based; conditions: MKN-28, 48 h

Compound | IC50 (MKN-28 [5]) [µM] | IC50 (Huh-7) [µM] | IC50 (HepG2) [µM] | IC50 (MKN-28 [10]) [µM] | Activity (MKN-28 [1]) | Activity [2] | Activity (MKN-28 [3]) | Activity [4] | IC50 at 24 h [6] [µM] | selectivity ratio [7] | selectivity ratio [8] | selectivity ratio [9]
COc1cc(NCCCCNC(=O)/C=C/c2ccc(F)cc2)c2nc3cc(Cl)ccc3cc2c1 | – | – | – | – | inactive | Non-Toxic | – | – | – | – | – | –
COc1cc(NCCCCNC(=O)/C=C/c2cccc(Br)c2)c2nc3cc(Cl)ccc3cc2c1 | – | – | – | – | inactive | Non-Toxic | – | – | – | – | – | –
COc1cc(NCCCCNC(=O)/C=C/c2ccc(C(C)C)cc2)c2nc3cc(Cl)ccc3cc2c1 | – | – | – | – | inactive | Non-Toxic | – | – | – | – | – | –
COc1cc(NCCCCNC(=O)/C=C/c2ccccc2)c2nc3cc(Cl)ccc3cc2c1 | – | – | – | – | inactive | Non-Toxic | – | – | – | – | – | –
COc1cc(NCCCCNC(=O)/C=C/c2ccc([N+](=O)[O-])cc2)c2nc3cc(Cl)ccc3cc2c1 | – | – | – | – | inactive | Non-Toxic | – | – | – | – | – | –
COc1cc(NCCCCNC(=O)/C=C/c2cccc(F)c2)c2nc3cc(Cl)ccc3cc2c1 | – | – | – | – | inactive | Non-Toxic | – | – | – | – | – | –
CNc1ccc(/C=C/C(=O)NCCCCNc2cc(OC)cc3cc4ccc(Cl)cc4nc23)cc1 | – | – | – | – | inactive | Non-Toxic | – | – | – | – | – | –
COc1cc(NCCCCNC(=O)/C=C/c2ccc(C(F)(F)F)cc2)c2nc3cc(Cl)ccc3cc2c1 | – | – | – | – | inactive | Non-Toxic | – | – | – | – | – | –
COc1cc(NCCCCNC(=O)/C=C/c2ccc(OC)c(OC)c2)c2nc3cc(Cl)ccc3cc2c1 | – | – | – | – | inactive | Non-Toxic | – | – | – | – | – | –
COc1cc(NCCCCNC(=O)/C=C/c2ccc(C)cc2)c2nc3cc(Cl)ccc3cc2c1 | – | – | – | – | inactive | Non-Toxic | – | – | – | – | – | –

Now from value to molecule, other results behind:

IC50 (MKN-28 [5]) [µM] | IC50 (Huh-7) [µM] | IC50 (HepG2) [µM] | IC50 (MKN-28 [10]) [µM] | Compound | Activity (MKN-28 [1]) | Activity [2] | Activity (MKN-28 [3]) | Activity [4] | IC50 at 24 h [6] [µM] | selectivity ratio [7] | selectivity ratio [8] | selectivity ratio [9]
15.5 | 12.4 | 5.38 | – | CCN(CC)CCCNc1c2ccc(Cl)cc2nc2c(NCCCCNC(=O)/C=C/c3ccc(OC)cc3)cc(OC)cc12 | – | – | Active | Non-Toxic | > 50 | > 3.2 | > 4 | > 9.3
13 | 11.5 | 5.21 | – | CCN(CC)CCCNc1c2ccc(Cl)cc2nc2c(NCCCCNC(=O)/C=C/c3cccc(F)c3)cc(OC)cc12 | – | – | Active | Non-Toxic | > 50 | > 3.8 | > 4.3 | > 9.6
13.7 | 12.1 | 3.33 | – | CCN(CC)CCCC(C)Nc1c2ccc(Cl)cc2nc2c(NCCCCNC(=O)/C=C/c3ccc(OC)cc3)cc(OC)cc12 (stereo not drawn) | – | – | Active | Non-Toxic | > 50 | > 3.6 | > 4.1 | > 15
12.2 | 11.2 | 6.32 | – | CCN(CC)CCCNc1c2ccc(Cl)cc2nc2c(NCCCCNC(=O)/C=C/c3ccc(F)cc3)cc(OC)cc12 | – | – | Active | Non-Toxic | > 50 | > 4.1 | > 4.5 | > 7.9
10 | 7.26 | 4.17 | – | CCN(CC)CCCC(C)Nc1c2ccc(Cl)cc2nc2c(NCCCCNC(=O)/C=C/c3ccccc3)cc(OC)cc12 (stereo not drawn) | – | – | Active | Non-Toxic | > 50 | > 5 | > 6.9 | > 12
15.4 | 12.1 | 4.11 | – | CCN(CC)CCCNc1c2ccc(Cl)cc2nc2c(NCCCCNC(=O)/C=C/c3ccccc3)cc(OC)cc12 | – | – | Active | Non-Toxic | > 50 | > 3.2 | > 4.1 | > 12.2
– | 6.05 | 0.425 | 0.34 | COc1cccc2c1C(=O)c1c(O)c3c(c(O)c1C2=O)C[C@@](O)(C(=O)CO)C[C@@H]3O[C@H]1C[C@H](N)[C@H](O)[C@H](C)O1 [DOXORUBICIN] | – | – | – | – | – | – | – | –
12.5 | 12.4 | 7.64 | – | CCN(CC)CCCC(C)Nc1c2ccc(Cl)cc2nc2c(NCCCCNC(=O)/C=C/c3ccc(F)cc3)cc(OC)cc12 (stereo not drawn) | – | – | Active | Non-Toxic | > 50 | > 4 | > 4 | > 6.5
– | 8.7 | 4.48 | 2.46 | CCN(CC)CCCC(C)Nc1c2ccc(Cl)cc2nc2ccc(OC)cc12 (stereo not drawn) [QUINACRINE] | – | – | – | – | – | – | – | –
12.7 | 12.9 | 5.06 | – | CCN(CC)CCCC(C)Nc1c2ccc(Cl)cc2nc2c(NCCCCNC(=O)/C=C/c3cccc(F)c3)cc(OC)cc12 (stereo not drawn) | – | – | Active | Non-Toxic | > 50 | > 3.9 | > 3.9 | > 9.9
